Measured values published in patent US9593305B2, “Differentiation of pluripotent stem cells” (Janssen Biotech, Inc., priority 2008, dated 2017).

Test system: H1 human embryonic stem cells
Test: Four-step differentiation with GDF-8, RT-PCR of pancreatic endoderm markers after step 4 (Example 19)
Assay type: cell-based
Details: 100 ng/ml GDF-8 with Wnt3a or with 2.5 μM Compound 40
Experimental: The differentiation process was started three days after the cells were seeded into 6-well plates. A four-step protocol was used for the in vitro differentiation of H1 human embryonic stem cells to cells expressing markers characteristic of the pancreatic endoderm lineage. Step 1 was conducted over three days to generate cells expressing markers characteristic of the definitive endoderm lineage. On the first day of step 1, differentiation was initiated by aspirating spent culture medium and adding an equal volume of RPMI-1640 basal medium (Invitrogen; Cat #22400) with 2% Albumin Bovine Fraction V, Fatty Acid Free (FAF BSA) (Proliant Biologicals; Cat #SKU 68700) and 8 ng/ml bFGF. In one treatment group, duplicate sets of cells were treated with 100 ng/ml GDF-8 (R&D Systems; Cat #788-G8) and 20 ng/ml Wnt3a (R&D Systems; Cat #1324-WN/CF). In a second treatment group, duplicate sets of cells were treated with 100 ng/ml GDF-8 and 2.5 μM Compound 40. On the second and third day of step 1 differentiation, cells in all treatment groups were fed with RPMI-1640 containing 2% FAF BSA, 8 ng/ml bFGF and 100 ng/ml GDF-8 but without the addition of Wnt3a or Compound 40. […]
Step 4 of the differentiation protocol was carried out over three days. […] On the following day, cells in suspension culture were collected and counted. […]

Row | Compound | markers characteristic of the pancreatic endoderm lineage at the conclusion of step 4 (RT-PCR)
1 | C=CCN1CC(=O)NCCCc2cncc(c2)-c2ncnc(n2)Nc2cccc(c2)C1 [Compound 40, 14-Prop-2-en-1-yl-3,5,7,14,17,23,27-heptaazatetracyclo[19.3.1.1˜2.6˜0.1˜8,12˜]heptacosa-1(25), 2(27), 3,5,8(26), 9,11,21,23-nonaen-16-one] | expressed equivalent levels of markers characteristic of the pancreatic endoderm lineage
2 | GDF-8: growth factor GDF-8, also known as myostatin, member of the TGF-β family | expressed equivalent levels of markers characteristic of the pancreatic endoderm lineage
